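Briefly, cells in 96-well plates were exposed to five compound concentrations for 48 h, and endpoints were estimated by linear interpolation. The concentration for 50% growth inhibition is given as GI50.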 Activity calls are given as the source filed them. Cut-off read from the data, not from the text of the source: active = GI50 up to about 1.1 µM and inactive = higher.
Assays:
Assay in all cases: NCI-60 cell line screen, 48 h
786-0 = test system: 786-0
A549 = test system: A549
ACHN = test system: ACHN
BT-549 = test system: BT-549
CAKI-1 = test system: CAKI-1
COLO 205 = test system: COLO 205
EKVX = test system: EKVX
HCC 2998 = test system: HCC 2998
HCT-116 = test system: HCT-116
HCT-15 = test system: HCT-15
HOP-62 = test system: HOP-62
HOP-92 = test system: HOP-92
HT-29 = test system: HT-29
Hs-578T = test system: Hs-578T
IGROV-1 = test system: IGROV-1
K562 = test system: K562
KM12 = test system: KM12
LOX IMVI = test system: LOX IMVI
M14 = test system: M14
MCF7 = test system: MCF7
MDA-MB-231 = test system: MDA-MB-231
MDA-MB-435 = test system: MDA-MB-435
MDA-N = test system: MDA-N
MOLT-4 = test system: MOLT-4
NCI-H226 = test system: NCI-H226
NCI-H23 = test system: NCI-H23
NCI-H460 = test system: NCI-H460
NCI-H522 = test system: NCI-H522
NCI/ADR-RES = test system: NCI/ADR-RES
OVCAR-3 = test system: OVCAR-3
OVCAR-4 = test system: OVCAR-4
OVCAR-5 = test system: OVCAR-5
OVCAR-8 = test system: OVCAR-8
PC-3 = test system: PC-3
SF-268 = test system: SF-268
SF-295 = test system: SF-295
SF-539 = test system: SF-539
SK-MEL-28 = test system: SK-MEL-28
SK-MEL-5 = test system: SK-MEL-5
SK-OV-3 = test system: SK-OV-3
SN12C = test system: SN12C
SNB-19 = test system: SNB-19
SNB-75 = test system: SNB-75
SR = test system: SR
SW-620 = test system: SW-620
TK-10 = test system: TK-10
U-251 = test system: U-251
UACC-257 = test system: UACC-257
UACC-62 = test system: UACC-62
UO-31 = test system: UO-31

With `CSc1cc(Br)ccc1-n1c(C(=O)c2ccccc2)c(SC)n(-c2ccccc2)c1=O` as the compound, how does the GI50 (786-0) read?
The GI50 was > 100 µM (inactive).

What about the GI50 (A549) of the same compound?
Its GI50 is > 100 µM (inactive).

What about the GI50 (ACHN) of the same compound?
The GI50 was > 100 µM (inactive).

And the GI50 (BT-549)?
Its GI50 is > 100 µM (inactive).

And the GI50 (CAKI-1)?
Its GI50 is > 100 µM (inactive).

What about the GI50 (COLO 205) of the same compound?
Its GI50 is 47.2 µM (inactive).

What about the GI50 (EKVX) of the same compound?
The GI50 was > 100 µM (inactive).

And the GI50 (HCC 2998)?
Its GI50 is 86.9 µM (inactive).

What about the GI50 (HCT-116) of the same compound?
Its GI50 is 49.3 µM (inactive).

And the GI50 (HCT-15)?
Its GI50 is 23 µM.

What about the GI50 (HOP-62) of the same compound?
The GI50 was > 100 µM (inactive).

And the GI50 (HOP-92)?
The GI50 was > 100 µM (inactive).

What about the GI50 (HT-29) of the same compound?
The GI50 was 52.8 µM (inactive).

What about the GI50 (Hs-578T) of the same compound?
Its GI50 is > 100 µM (inactive).

And the GI50 (IGROV-1)?
Its GI50 is > 100 µM (inactive).

What about the GI50 (K562) of the same compound?
The GI50 was 4.81 µM (inactive).

And the GI50 (KM12)?
Its GI50 is > 100 µM (inactive).

What about the GI50 (LOX IMVI) of the same compound?
Its GI50 is > 100 µM (inactive).

And the GI50 (M14)?
The GI50 was 96.2 µM (inactive).

What about the GI50 (MCF7) of the same compound?
The GI50 was 63.1 µM (inactive).

And the GI50 (MDA-MB-231)?
The GI50 was 39.8 µM (inactive).

What about the GI50 (MDA-MB-435) of the same compound?
The GI50 was 7.59 µM (inactive).

And the GI50 (MDA-N)?
Its GI50 is 18.5 µM (inactive).

What about the GI50 (MOLT-4) of the same compound?
The GI50 was 5.28 µM (inactive).

What about the GI50 (NCI-H226) of the same compound?
The GI50 was > 100 µM (inactive).

And the GI50 (NCI-H23)?
Its GI50 is 86.3 µM (inactive).

What about the GI50 (NCI-H460) of the same compound?
The GI50 was 50.9 µM (inactive).

What about the GI50 (NCI-H522) of the same compound?
Its GI50 is 54.6 µM (inactive).

And the GI50 (NCI/ADR-RES)?
Its GI50 is 53.8 µM (inactive).

And the GI50 (OVCAR-3)?
The GI50 was > 100 µM (inactive).

And the GI50 (OVCAR-4)?
Its GI50 is > 100 µM (inactive).

What about the GI50 (OVCAR-5) of the same compound?
Its GI50 is > 100 µM (inactive).

What about the GI50 (OVCAR-8) of the same compound?
Its GI50 is > 100 µM (inactive).

What about the GI50 (PC-3) of the same compound?
Its GI50 is 5.53 µM (inactive).

And the GI50 (SF-268)?
The GI50 was > 100 µM (inactive).

What about the GI50 (SF-295) of the same compound?
The GI50 was 84.5 µM (inactive).

And the GI50 (SF-539)?
Its GI50 is > 100 µM (inactive).

What about the GI50 (SK-MEL-28) of the same compound?
Its GI50 is > 100 µM (inactive).

And the GI50 (SK-MEL-5)?
Its GI50 is 67.8 µM (inactive).

And the GI50 (SK-OV-3)?
The GI50 was > 100 µM (inactive).

And the GI50 (SN12C)?
The GI50 was > 100 µM (inactive).

And the GI50 (SNB-19)?
Its GI50 is > 100 µM (inactive).

What about the GI50 (SNB-75) of the same compound?
The GI50 was > 100 µM (inactive).

What about the GI50 (SR) of the same compound?
The GI50 was 74.5 µM (inactive).

And the GI50 (SW-620)?
Its GI50 is 19 µM (inactive).

And the GI50 (TK-10)?
The GI50 was > 100 µM (inactive).

What about the GI50 (U-251) of the same compound?
Its GI50 is > 100 µM (inactive).

And the GI50 (UACC-257)?
Its GI50 is > 100 µM (inactive).

And the GI50 (UACC-62)?
The GI50 was > 100 µM (inactive).

What about the GI50 (UO-31) of the same compound?
The GI50 was 67 µM (inactive).

— ChEMBL document CHEMBL1201862, “PubChem BioAssay data set” (2004)
